Data on 33 compounds can be found in ChEMBL document CHEMBL1153054, “Functionalized 3-amino-imidazo[1,2-a]pyridines: a novel class of drug-like Mycobacterium tuberculosis glutamine synthetase inhibitors” (Bioorg Med Chem Lett, 2009).

pIC50: −log10 of the molar value.

One assay can be described thus: Inhibition of Mycobacterium tuberculosis glutamine synthetase.
Conditions: not given
With `Oc1ccc(-c2nc3ccc(Br)cn3c2NC2CCCC2)cc1`, the IC50 result is given as “ND(Insoluble)”.

Staying with this assay, now noted: read-out: IC50.
As to `Oc1ccccc1-c1nc2ccc(Br)cn2c1NC1CCCC1`, the pIC50 is < 4.30.
With `COc1ccc(-c2nc3c(Br)cccn3c2NC2CCCC2)cc1O`, the negative logarithm of the IC50 (pIC50) was 4.67.
Consider `COc1ccc(-c2nc3ccccn3c2NC2CCCC2)cc1O`, for which the pIC50 was < 4.30.
For the compound `COc1ccc(-c2nc3ccc(CCc4ccccc4)cn3c2NC2CCCC2)cc1O`, the negative logarithm of the IC50 (pIC50) is < 4.30.
For `COc1ccc(-c2nc3ccc(/C=C/c4ccccc4)cn3c2NC2CCCC2)cc1O`, the negative-log IC50 (pIC50) was < 4.30.
In the case of `COc1ccc(-c2nc3ccc(Br)cn3c2NC2CCCC2)cc1O`, the pIC50 was 5.06.
Same read-out and setting: to `OCc1cccc(-c2nc3ccc(Br)cn3c2NC2CCCC2)c1` belongs 4.88.
On to `O=[N+]([O-])c1ccc(-c2nc3ccc(Br)cn3c2NC2CCCC2)cc1O`, for which the pIC50 is < 4.30.
Same read-out and setting: to `Brc1ccc2ncc(NC3CCCC3)n2c1` belongs < 4.30; to `COc1ccc(-c2nc3ccc(-c4ccncc4)cn3c2NC2CCCC2)cc1O`, < 4.30; to `COc1ccc(-c2nc3cccc(Br)n3c2NC2CCCC2)cc1O`, < 4.30.
With `Oc1cccc(-c2nc3ccc(Br)cn3c2NC2CCCC2)c1Cl`, the pIC50 was < 4.30.
On the same count and under the same terms, as for `COc1cccc(-c2nc3ccc(Br)cn3c2NC2CCCC2)c1OC`, the figure is < 4.30; as for `COc1ccc(-c2nc3ccc(Cc4ccccc4)cn3c2NC2CCCC2)cc1O`, < 4.30; as for `COc1ccc(-c2nc3ccc(-c4ccccc4)cn3c2NC2CCCC2)cc1O`, < 4.30.
Consider `COc1ccc(-c2nc3ccc(C)cn3c2NC2CCCC2)cc1O`, for which the pIC50 was < 4.30.
`COc1ccc(-c2nc3c(Br)cc(Br)cn3c2NC2CCCC2)cc1O`: the negative logarithm of the IC50 (pIC50) was < 4.30.
Same read-out and setting: as for `Brc1ccc2nc(-c3ccccc3)c(NC3CCCC3)n2c1`, the figure is < 4.30.
Same read-out and setting: to `COc1ccc(-c2nc3ccc(Oc4ccccc4)cn3c2NC2CCCC2)cc1O` belongs < 4.30; to `COc1ccc(-c2nc3ccc(F)cn3c2NC2CCCC2)cc1O`, < 4.30.
As for `O=C(O)c1cccc(-c2nc3ccc(Br)cn3c2NC2CCCC2)c1`, the negative-log IC50 (pIC50) was 6.42.
On the same count and under the same terms, as for `Nc1cccc(-c2nc3ccc(Br)cn3c2NC2CCCC2)c1`, the figure is 5.00; as for `O=[N+]([O-])c1cccc(-c2nc3ccc(Br)cn3c2NC2CCCC2)c1`, < 4.30.
With `COc1ccc(-c2nc3ccc(I)cn3c2NC2CCCC2)cc1O`, the pIC50 is 5.32.
For the compound `COc1ccc2nc(-c3ccc(OC)c(O)c3)c(NC3CCCC3)n2c1`, the pIC50 was 4.50.
Consider `COc1ccc(-c2nc3ccc(C(F)(F)F)cn3c2NC2CCCC2)cc1O`, for which the pIC50 was < 4.30.
`COc1cccc(-c2nc3ccc(Br)cn3c2NC2CCCC2)c1`: the pIC50 is < 4.30.
Regarding `COc1cc(-c2nc3ccc(Br)cn3c2NC2CCCC2)ccc1O`, the negative logarithm of the IC50 (pIC50) was < 4.30.
Still for that read-out and setting: as for `COc1ccc(-c2nc3ccc(C#N)cn3c2NC2CCCC2)cc1O`, the figure is < 4.30; as for `COc1ccc(-c2nc3ccc(Cl)cn3c2NC2CCCC2)cc1O`, 4.95; as for `Oc1cccc(-c2nc3ccc(Br)cn3c2NC2CCCC2)c1`, < 4.30.
The same measure, in the same setting: to `COc1ccc(-c2nc3c(C)cc(Br)cn3c2NC2CCCC2)cc1O` belongs 4.90.
